According to ChEMBL document CHEMBL5126592, “Design, synthesis and activity against drug-resistant bacteria evaluation of C-20, C-23 modified 5-O-mycaminosyltylonolide derivatives” (Eur J Med Chem, 2022):
In brackets after ≈: the same amount, converted by molar mass.

Tests used:
Assay type in all cases: functional
Details in all cases: time 16-20 hrs
Klebsiella pneumoniae = experiment: Antibacterial activity against Klebsiella pneumoniae ATCC 13883 incubated for 16 to 20 hrs by broth microdilution method
Staphylococcus aureus = experiment: Antibacterial activity against Staphylococcus aureus ATCC 25923 incubated for 16 to 20 hrs by broth microdilution method
Escherichia coli = experiment: Antibacterial activity against Escherichia coli ATCC 25922 incubated for 16 to 20 hrs by broth microdilution method
Cronobacter sakazakii = experiment: Antibacterial activity against Cronobacter sakazakii ATCC 29544 incubated for 16 to 20 hrs by broth microdilution method

Structure (SMILES) | MIC (Klebsiella pneumoniae) [µg/mL] | MIC (Staphylococcus aureus) [µg/mL] | MIC (Escherichia coli) [µg/mL] | MIC (Cronobacter sakazakii) [µg/mL]
CC[C@H]1OC(=O)C[C@@H](O)[C@H](C)[C@@H](O[C@@H]2O[C@H](C)[C@@H](O)[C@H](N(C)C)[C@H]2O)[C@@H](CCN(Cc2ccc(N(C)C)cc2)Cc2cn(-c3cnc4ccccc4c3)nn2)C[C@@H](C)C(=O)/C=C/C(C)=C/[C@@H]1CN1CCCCCCC1 | 16 (≈ 15.5 µM) | 0.5 (≈ 0.483 µM) | 8 (≈ 7.73 µM) | 32 (≈ 30.9 µM)
CC[C@H]1OC(=O)C[C@@H](O)[C@H](C)[C@@H](O[C@@H]2O[C@H](C)[C@@H](O)[C@H](N(C)C)[C@H]2O)[C@@H](CCN(C)Cc2cn(-c3cnc4ccccc4c3)nn2)C[C@@H](C)C(=O)/C=C/C(C)=C/[C@@H]1CN(C)C(C)C | 8 (≈ 9.13 µM) | 0.5 (≈ 0.571 µM) | 8 (≈ 9.13 µM) | 16 (≈ 18.3 µM)
CC[C@H]1OC(=O)C[C@@H](O)[C@H](C)[C@@H](O[C@@H]2O[C@H](C)[C@@H](O)[C@H](N(C)C)[C@H]2O)[C@@H](CCN(Cc2ccc(C(F)(F)F)cc2)Cc2cn(-c3cnc4ccccc4c3)nn2)C[C@@H](C)C(=O)/C=C/C(C)=C/[C@@H]1CN1CCC(O)CC1 | 32 (≈ 30.5 µM) | 2 (≈ 1.91 µM) | 16 (≈ 15.3 µM) | 32 (≈ 30.5 µM)
CC[C@H]1OC(=O)C[C@@H](O)[C@H](C)[C@@H](O[C@@H]2O[C@H](C)[C@@H](O)[C@H](N(C)C)[C@H]2O)[C@@H](CCN(Cc2cncnc2)Cc2cn(-c3cnc4ccccc4c3)nn2)C[C@@H](C)C(=O)/C=C/C(C)=C/[C@@H]1CO | 32 (≈ 35.6 µM) | 0.5 (≈ 0.556 µM) | 32 (≈ 35.6 µM) | 32 (≈ 35.6 µM)
CC[C@H]1OC(=O)C[C@@H](O)[C@H](C)[C@@H](O[C@@H]2O[C@H](C)[C@@H](O)[C@H](N(C)C)[C@H]2O)[C@@H](CCN(Cc2ccncc2)Cc2cn(-c3cnc4ccccc4c3)nn2)C[C@@H](C)C(=O)/C=C/C(C)=C/[C@@H]1CO | 32 (≈ 35.6 µM) | 0.125 (≈ 0.139 µM) | 32 (≈ 35.6 µM) | 32 (≈ 35.6 µM)
CCc1ccc(CN(CC[C@H]2C[C@@H](C)C(=O)/C=C/C(C)=C/[C@H](CO)[C@@H](CC)OC(=O)C[C@@H](O)[C@H](C)[C@H]2O[C@@H]2O[C@H](C)[C@@H](O)[C@H](N(C)C)[C@H]2O)Cc2cn(-c3cnc4ccccc4c3)nn2)cc1 | 16 (≈ 17.3 µM) | 0.5 (≈ 0.54 µM) | 32 (≈ 34.6 µM) | 16 (≈ 17.3 µM)
CCCN(C)C[C@H]1/C=C(C)/C=C/C(=O)[C@H](C)C[C@H](CCN(C)Cc2cn(-c3cnc4ccccc4c3)nn2)[C@H](O[C@@H]2O[C@H](C)[C@@H](O)[C@H](N(C)C)[C@H]2O)[C@@H](C)[C@H](O)CC(=O)O[C@@H]1CC | 8 (≈ 9.13 µM) | 0.5 (≈ 0.571 µM) | 8 (≈ 9.13 µM) | 16 (≈ 18.3 µM)
CC[C@H]1OC(=O)C[C@@H](O)[C@H](C)[C@@H](O[C@@H]2O[C@H](C)[C@@H](O)[C@H](N(C)C)[C@H]2O)[C@@H](CCN(C)Cc2cn(-c3cnc4ccccc4c3)nn2)C[C@@H](C)C(=O)/C=C/C(C)=C/[C@@H]1CN(C)CC | 8 (≈ 9.28 µM) | 1 (≈ 1.16 µM) | 8 (≈ 9.28 µM) | 8 (≈ 9.28 µM)
CC[C@H]1OC(=O)C[C@@H](O)[C@H](C)[C@@H](O[C@@H]2O[C@H](C)[C@@H](O)[C@H](N(C)C)[C@H]2O)[C@@H](CCN(Cc2ccc(OC)cc2)Cc2cn(-c3cnc4ccccc4c3)nn2)C[C@@H](C)C(=O)/C=C/C(C)=C/[C@@H]1CN1CC(C)CC(C)C1 (stereo partly specified) | 16 (≈ 15.7 µM) | 2 (≈ 1.96 µM) | 16 (≈ 15.7 µM) | 32 (≈ 31.3 µM)
CC[C@H]1OC(=O)C[C@@H](O)[C@H](C)[C@@H](O[C@@H]2O[C@H](C)[C@@H](O)[C@H](N(C)C)[C@H]2O)[C@@H](CCN(Cc2ccc([N+](=O)[O-])cc2)Cc2cn(-c3cnc4ccccc4c3)nn2)C[C@@H](C)C(=O)/C=C/C(C)=C/[C@@H]1CO | 32 (≈ 34 µM) | 0.25 (≈ 0.265 µM) | 32 (≈ 34 µM) | 32 (≈ 34 µM)
CC[C@H]1OC(=O)C[C@@H](O)[C@H](C)[C@@H](O[C@@H]2O[C@H](C)[C@@H](O)[C@H](N(C)C)[C@H]2O)[C@@H](CCN(Cc2ccc(OC)cc2)Cc2cn(-c3cnc4ccccc4c3)nn2)C[C@@H](C)C(=O)/C=C/C(C)=C/[C@@H]1CN1CCC(O)CC1 | 8 (≈ 7.92 µM) | 2 (≈ 1.98 µM) | 8 (≈ 7.92 µM) | 32 (≈ 31.7 µM)
CC[C@H]1OC(=O)C[C@@H](O)[C@H](C)[C@@H](O[C@@H]2O[C@H](C)[C@@H](O)[C@H](N(C)C)[C@H]2O)[C@@H](CCN(Cc2ccccc2)Cc2cn(-c3cnc4ccccc4c3)nn2)C[C@@H](C)C(=O)/C=C/C(C)=C/[C@@H]1CN(C)C | 4 (≈ 4.33 µM) | 1 (≈ 1.08 µM) | 8 (≈ 8.66 µM) | 16 (≈ 17.3 µM)
CC[C@H]1OC(=O)C[C@@H](O)[C@H](C)[C@@H](O[C@@H]2O[C@H](C)[C@@H](O)[C@H](N(C)C)[C@H]2O)[C@@H](CCN(Cc2ccc(N(C)C)cc2)Cc2cn(-c3cnc4ccccc4c3)nn2)C[C@@H](C)C(=O)/C=C/C(C)=C/[C@@H]1CN1CCCCCC1 | 4 (≈ 3.92 µM) | 1 (≈ 0.979 µM) | 4 (≈ 3.92 µM) | 8 (≈ 7.83 µM)
CC[C@H]1OC(=O)C[C@@H](O)[C@H](C)[C@@H](O[C@@H]2O[C@H](C)[C@@H](O)[C@H](N(C)C)[C@H]2O)[C@@H](CCN(Cc2cn(-c3cnc4ccccc4c3)nn2)Cc2c(OC)cc(OC)cc2OC)C[C@@H](C)C(=O)/C=C/C(C)=C/[C@@H]1CO | 32 (≈ 32.4 µM) | 0.5 (≈ 0.506 µM) | 16 (≈ 16.2 µM) | 32 (≈ 32.4 µM)
